One data set concerns the target T1, DAT (Rattus norvegicus, UniProt P23977).
T1 construct: from tissue; host or cells: rat brain
Nature of the data set: DAT uptake inhibition, [3H]DA, rat brain. Format: biochemical. The following applies: number in parentheses within cell.

The next data set deals with T2, SERT (Rattus norvegicus, UniProt P31652).
T2 construct: from tissue; host or cells: rat brain
Nature of the data set: SERT uptake inhibition, [3H]-5-HT, rat brain. The following applies: number in parentheses within cell. The data set is classed as biochemical.

The target of the next data set is T3, NET (Rattus norvegicus, UniProt Q63380).
T3 construct: from tissue; host or cells: rat brain
Nature of the data set: NET uptake inhibition, [3H]DA, rat brain. Format: biochemical. The following applies: number in parentheses within cell.

Counter-ions that a name gives are not always drawn.

T3 sequence (Q63380 1-617): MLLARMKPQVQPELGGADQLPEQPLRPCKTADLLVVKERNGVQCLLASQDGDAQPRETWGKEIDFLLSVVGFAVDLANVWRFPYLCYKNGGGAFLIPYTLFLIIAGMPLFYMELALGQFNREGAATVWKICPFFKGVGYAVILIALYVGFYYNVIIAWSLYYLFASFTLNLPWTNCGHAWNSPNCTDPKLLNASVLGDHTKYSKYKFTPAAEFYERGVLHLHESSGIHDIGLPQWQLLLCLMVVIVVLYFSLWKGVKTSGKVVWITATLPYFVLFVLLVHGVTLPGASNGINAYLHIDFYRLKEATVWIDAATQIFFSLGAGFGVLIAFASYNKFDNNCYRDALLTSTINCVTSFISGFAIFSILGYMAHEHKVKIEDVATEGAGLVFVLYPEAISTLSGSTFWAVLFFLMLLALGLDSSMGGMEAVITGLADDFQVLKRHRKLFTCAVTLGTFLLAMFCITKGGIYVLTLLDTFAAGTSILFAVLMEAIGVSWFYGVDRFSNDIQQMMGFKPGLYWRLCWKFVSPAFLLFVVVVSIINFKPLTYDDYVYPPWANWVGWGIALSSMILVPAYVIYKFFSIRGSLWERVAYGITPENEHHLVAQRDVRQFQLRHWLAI
T2 sequence (P31652 whole entry): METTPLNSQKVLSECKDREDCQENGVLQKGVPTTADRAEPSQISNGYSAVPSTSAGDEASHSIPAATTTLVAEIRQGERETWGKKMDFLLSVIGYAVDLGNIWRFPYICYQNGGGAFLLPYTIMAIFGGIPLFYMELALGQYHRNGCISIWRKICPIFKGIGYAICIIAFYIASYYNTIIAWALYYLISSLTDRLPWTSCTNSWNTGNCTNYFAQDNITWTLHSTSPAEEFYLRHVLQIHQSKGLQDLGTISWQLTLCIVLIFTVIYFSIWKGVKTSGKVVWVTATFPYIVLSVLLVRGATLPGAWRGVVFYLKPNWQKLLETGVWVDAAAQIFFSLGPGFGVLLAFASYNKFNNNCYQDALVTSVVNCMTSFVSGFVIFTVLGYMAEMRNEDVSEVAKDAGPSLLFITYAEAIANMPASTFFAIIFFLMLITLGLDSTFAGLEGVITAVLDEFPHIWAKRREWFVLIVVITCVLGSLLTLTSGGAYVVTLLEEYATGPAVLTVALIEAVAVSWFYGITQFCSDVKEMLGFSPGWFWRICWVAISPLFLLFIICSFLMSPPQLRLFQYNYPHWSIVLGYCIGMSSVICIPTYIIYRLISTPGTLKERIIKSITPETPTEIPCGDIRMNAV
T1 sequence (P23977 whole entry): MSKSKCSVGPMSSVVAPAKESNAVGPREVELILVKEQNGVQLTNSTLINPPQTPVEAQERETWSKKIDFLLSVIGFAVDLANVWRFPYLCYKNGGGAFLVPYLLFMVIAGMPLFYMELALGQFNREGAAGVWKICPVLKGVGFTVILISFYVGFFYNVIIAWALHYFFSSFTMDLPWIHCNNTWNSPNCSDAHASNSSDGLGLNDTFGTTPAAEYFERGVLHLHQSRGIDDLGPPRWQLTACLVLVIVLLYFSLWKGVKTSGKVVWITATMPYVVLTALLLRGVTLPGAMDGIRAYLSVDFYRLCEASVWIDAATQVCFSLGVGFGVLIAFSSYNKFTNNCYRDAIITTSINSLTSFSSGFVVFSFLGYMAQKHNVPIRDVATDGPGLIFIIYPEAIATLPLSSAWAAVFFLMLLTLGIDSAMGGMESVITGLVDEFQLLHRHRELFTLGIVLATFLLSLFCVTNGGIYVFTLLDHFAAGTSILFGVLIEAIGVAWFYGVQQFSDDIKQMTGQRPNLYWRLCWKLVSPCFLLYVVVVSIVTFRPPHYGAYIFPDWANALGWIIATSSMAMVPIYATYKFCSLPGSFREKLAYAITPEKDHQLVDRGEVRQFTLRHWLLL

Turning to `Nc1ccc(CN[C@@H]2CO[C@H](C(c3ccc(F)cc3)c3ccc(F)cc3)C[C@H]2O)cc1` [6k, D-529, (2S,4R,5R)-5-((4-aminobenzyl)amino)-2-(bis(4-fluorophenyl)methyl) tetrahydro-2H-pyran-4-ol], the values for the inhibition constant Ki at DAT and at SERT were 24.5 ± 1.2 nM and 339 ± 39 nM, respectively.

With `O[C@@H]1C[C@@H](C(c2ccc(F)cc2)c2ccc(F)cc2)OC[C@H]1NCc1ccc2c(c1)CCO2` [6c, D-507, (2S,4R,5R)-2-(bis(4-fluorophenyl)methyl)-5-(((2,3-dihydrobenzofuran-5-yl)methyl)amino)tetrahydro-2H-pyran-4-ol], the figures for the Ki on DAT, at SERT and on NET were 17 nM, 54 ± 7.8 nM and 25.8 ± 5 nM, respectively.

On to `COc1cccc(CN[C@@H]2CO[C@H](C(c3ccc(F)cc3)c3ccc(F)cc3)C[C@H]2O)c1` [6e, D-524, (2S,4R,5R)-2-(bis(4-fluorophenyl)methyl)-5-((3-methoxybenzyl)amino)tetrahydro-2H-pyran-4-ol], for which the results for the Ki on DAT and at SERT were 56.8 ± 7.6 nM and 129 ± 25 nM, respectively.

As for `COc1cc(CN[C@@H]2CO[C@H](C(c3ccccc3)c3ccccc3)C[C@H]2O)ccc1O` [4c, D-501, (2S,4R,5R)-2-benzhydryl-5-((4-hydroxy-3-methoxybenzyl)amino)tetrahydro-2H-pyran-4-ol], at DAT, the Ki turned out to be 167 ± 36 nM.

On to `COc1ccc(CN[C@@H]2CO[C@H](C(c3ccccc3)c3ccccc3)C[C@H]2O)cc1O` [4d, D-502, (2S,4R,5R)-2-benzhydryl-5-((3-hydroxy-4-methoxybenzyl)amino)tetrahydro-2H-pyran-4-ol], for which the Ki at DAT is 58.6 ± 11.8 nM; on SERT it was 281 ± 37 nM.

Take `COc1cc(O)cc(CN[C@@H]2CO[C@H](C(c3ccccc3)c3ccccc3)C[C@H]2O)c1` [4e, D-503, (2S,4R,5R)-2-benzhydryl-5-((3-hydroxy-5-methoxybenzyl)amino)tetrahydro-2H-pyran-4-ol]: the inhibition constant Ki worked out at 209 ± 25 nM at DAT and 385 ± 42 nM at SERT.

As to `O[C@@H]1C[C@@H](C(c2ccc(F)cc2)c2ccc(F)cc2)OC[C@H]1NCc1ccc2occc2c1` [6d, D-508, (2S,4R,5R)-5-((benzofuran-5-ylmethyl)amino)-2-(bis(4-fluorophenyl)methyl)tetrahydro-2H-pyran-4-ol], the Ki on DAT is 29.3 ± 2.4 nM; on SERT it was 68.4 ± 11.4 nM; at NET, 26.5 ± 6.6 nM.

Compound `Oc1cc(O)cc(CN[C@@H]2CO[C@H](C(c3ccccc3)c3ccccc3)C[C@H]2O)c1` (as salt: hydrochloride) [4f, D-542, 5-((((3R,4R,6S)-6-benzhydryl-4-hydroxytetrahydro-2H-pyran-3-yl)amino)methyl)benzene-1,3-diol] had a melting point of 168 to 170 °C.

Turning to `Oc1ccc(CN[C@@H]2CO[C@H](C(c3ccc(F)cc3)c3ccc(F)cc3)C[C@H]2O)cc1F` [6n, D-531, (2S,4R,5R)-2-(bis(4-fluorophenyl)methyl)-5-((3-fluoro-4-hydroxybenzyl)amino) tetrahydro-2H-pyran-4-ol], the Ki on SERT is 334 ± 54 nM.

As to `O[C@@H]1C[C@@H](C(c2ccccc2)c2ccccc2)OC[C@H]1NCc1ccc2occc2c1` (as salt: hydrochloride) [4a, D-485, (2S,4R,5R)-2-benzhydryl-5-((benzofuran-5-ylmethyl)amino)tetrahydro-2H-pyran-4-ol], the melting point lay in the range of 204 to 206 °C.

Regarding `COc1cc(CN[C@@H]2CO[C@H](C(c3ccc(F)cc3)c3ccc(F)cc3)C[C@H]2O)ccc1O` [6h, D-527, (2S,4R,5R)-2-(bis(4-fluorophenyl)methyl)-5-((4-hydroxy-3-methoxybenzyl)amino)tetrahydro-2H-pyran-4-ol], the Ki at DAT was determined as 8.94 ± 2.2 nM; at SERT, 107 ± 11 nM.

`O[C@@H]1C[C@@H](C(c2ccc(F)cc2)c2ccc(F)cc2)OC[C@H]1NCc1ccc2c(c1)OCO2` [6b, D-506, (2S,4R,5R)-5-((benzo[d][1,3]dioxol-5-ylmethyl)amino)-2-(bis(4-fluorophenyl)methyl)tetrahydro-2H-pyran-4-ol]: the Ki on DAT is 37 ± 7.5 nM.

In the case of `Oc1cc(O)cc(CN[C@@H]2CO[C@H](C(c3ccccc3)c3ccccc3)C[C@H]2O)c1` [4f, D-542, 5-((((3R,4R,6S)-6-benzhydryl-4-hydroxytetrahydro-2H-pyran-3-yl)amino)methyl)benzene-1,3-diol], the results for the Ki on DAT, at SERT and at NET were 259 ± 44 nM, 3020 nM and 152 ± 29 nM, respectively.

Consider `COc1cc(O)cc(CN[C@@H]2CO[C@H](C(c3ccccc3)c3ccccc3)C[C@H]2O)c1` (as salt: hydrochloride) [4e, D-503, (2S,4R,5R)-2-benzhydryl-5-((3-hydroxy-5-methoxybenzyl)amino)tetrahydro-2H-pyran-4-ol], for which the melting point was 160 to 162 °C.

Take `COc1cc(O)cc(CN[C@@H]2CO[C@H](C(c3ccc(F)cc3)c3ccc(F)cc3)C[C@H]2O)c1` [6g, D-526, (2S,4R,5R)-2-(bis(4-fluorophenyl)methyl)-5-((3-hydroxy-5-methoxybenzyl)amino)tetrahydro-2H-pyran-4-ol]: the Ki at DAT stood at 25.6 ± 5.8 nM; on SERT, 577 ± 94 nM.

Regarding `CN(C)c1ccc(CN[C@@H]2CO[C@H](C(c3ccc(F)cc3)c3ccc(F)cc3)C[C@H]2O)cc1` [6o, D-536, (2S,4R,5R)-2-(bis(4-fluorophenyl)methyl)-5-((4-(dimethylamino)benzyl)amino)tetrahydro-2H-pyran-4-ol], the Ki on DAT stood at 41.3 ± 9.7 nM; on SERT, 144 ± 26 nM; at NET, 56.6 ± 5.2 nM.

On to `c1ccc(C(c2ccccc2)[C@@H]2CC[C@H](NCc3ccc4occc4c3)CO2)cc1` [2a, D-484, (3S,6S)-6-benzhydryl-N-(benzofuran-5-ylmethyl)tetrahydro-2H-pyran-3-amine], for which the results for the Ki at DAT, on SERT and at NET were 81.9 ± 17.9 nM, 0.71 ± 0.085 nM and 25.2 ± 5.3 nM, respectively.

Regarding `COc1ccc(CN[C@@H]2CO[C@H](C(c3ccc(F)cc3)c3ccc(F)cc3)C[C@H]2O)cc1` [6a, D-473, (2S,4R,5R)-2-(bis(4-fluorophenyl)methyl)-5-((4-methoxybenzyl)amino)tetrahydro-2H-pyran-4-ol], the Ki at DAT is 13.3 ± 2 nM; on SERT, 46.7 ± 17 nM; at NET, 13.2 ± 3.5 nM.

The compound `COc1cccc(CN[C@@H]2CO[C@H](C(c3ccccc3)c3ccccc3)C[C@H]2O)c1` (as salt: hydrochloride) [4g, D-523, (2S,4R,5R)-2-benzhydryl-5-((3-methoxybenzyl)amino)tetrahydro-2H-pyran-4-ol] had a melting point of 197 to 199 °C.

As to `c1ccc(C(c2ccccc2)[C@@H]2CC[C@H](NCc3ccc4occc4c3)CO2)cc1` (as salt: hydrochloride) [2a, D-484, (3S,6S)-6-benzhydryl-N-(benzofuran-5-ylmethyl)tetrahydro-2H-pyran-3-amine], the melting point fell in the range of 140 to 142 °C.

In the case of `O[C@@H]1C[C@@H](C(c2ccccc2)c2ccccc2)OC[C@H]1NCc1ccc2cc[nH]c2c1` [4b, D-544, (2S,4R,5R)-5-(((1H-indol-6-yl)methyl)amino)-2-benzhydryltetrahydro-2H-pyran-4-ol], the figures for the Ki on DAT, at SERT and at NET were 64 ± 6.1 nM, 9.6 ± 2.57 nM and 10 ± 3.5 nM, respectively.

As to `COc1cc(CN[C@@H]2CO[C@H](C(c3ccccc3)c3ccccc3)C[C@H]2O)ccc1O` (as salt: hydrochloride) [4c, D-501, (2S,4R,5R)-2-benzhydryl-5-((4-hydroxy-3-methoxybenzyl)amino)tetrahydro-2H-pyran-4-ol], the melting point fell in the range of 203 to 205 °C.

In the case of `COc1ccc(CN[C@@H]2CO[C@H](C(c3ccc(F)cc3)c3ccc(F)cc3)C[C@H]2O)cc1O` [6i, D-528, (2S,4R,5R)-2-(bis(4-fluorophenyl)methyl)-5-((3-hydroxy-4-methoxybenzyl)amino)tetrahydro-2H-pyran-4-ol], the results for the Ki on DAT and on SERT were 7.94 ± 0.66 nM and 367 ± 52 nM, respectively.

Consider `CCNc1ccc(CN[C@@H]2CO[C@H](C(c3ccc(F)cc3)c3ccc(F)cc3)C[C@H]2O)cc1` [6m, D-530, (2S,4R,5R)-2-(bis(4-fluorophenyl)methyl)-5-((4-(ethylamino)benzyl)amino) tetrahydro-2H-pyran-4-ol], for which, at SERT, the Ki came out at 320 ± 40 nM.

Regarding `COc1ccc(CN[C@@H]2CO[C@H](C(c3ccc(F)cc3)c3ccc(F)cc3)C[C@H]2O)cn1` [6p, D-537, (2S,4R,5R)-2-(bis(4-fluorophenyl)methyl)-5-(((6-methoxypyridin-3-yl)methyl)amino)tetrahydro-2H-pyran-4-ol], the inhibition constant Ki on DAT stood at 20.1 ± 5.3 nM; on SERT it was 258 ± 26 nM; at NET, 28.4 ± 4 nM.

In turn, `COc1ccc(CN[C@@H]2CO[C@H](C(c3ccccc3)c3ccccc3)C[C@H]2O)cc1O` (as salt: hydrochloride) [4d, D-502, (2S,4R,5R)-2-benzhydryl-5-((3-hydroxy-4-methoxybenzyl)amino)tetrahydro-2H-pyran-4-ol] displayed a melting point of 168 to 170 °C.

For `O[C@@H]1C[C@@H](C(c2ccccc2)c2ccccc2)OC[C@H]1NCc1ccc2cc[nH]c2c1` (as salt: oxalate) [4b, D-544, (2S,4R,5R)-5-(((1H-indol-6-yl)methyl)amino)-2-benzhydryltetrahydro-2H-pyran-4-ol], the melting point lay within 152 to 154 °C.

Compound `c1ccc(C(c2ccccc2)[C@@H]2CC[C@H](NCc3ccc4cc[nH]c4c3)CO2)cc1` (as salt: oxalate) [2b, D-543] displayed a melting point of 194 to 196 °C.

Consider `O[C@@H]1C[C@@H](C(c2ccccc2)c2ccccc2)OC[C@H]1NCc1ccc2occc2c1` [4a, D-485, (2S,4R,5R)-2-benzhydryl-5-((benzofuran-5-ylmethyl)amino)tetrahydro-2H-pyran-4-ol], for which the Ki came to 234 ± 11 nM at DAT, 2.68 ± 0.094 nM at SERT and 33.6 ± 18.7 nM at NET.

In the case of `COc1cccc(CN[C@@H]2CO[C@H](C(c3ccccc3)c3ccccc3)C[C@H]2O)c1` [4g, D-523, (2S,4R,5R)-2-benzhydryl-5-((3-methoxybenzyl)amino)tetrahydro-2H-pyran-4-ol], the inhibition constant Ki came out at 376 ± 68 nM on DAT, 27.2 ± 3 nM on SERT and 5.85 ± 1.27 nM on NET.

Regarding `c1ccc(C(c2ccccc2)[C@@H]2CC[C@H](NCc3ccc4cc[nH]c4c3)CO2)cc1` [2b, D-543], the Ki on DAT was determined as 56.3 ± 1.1 nM; on SERT it was 13.6 ± 1.6 nM; on NET, 20.8 ± 4.6 nM.

As usually defined, the Ki is the dissociation constant of the complex between target and ligand, obtained from inhibition or displacement. By melting point is commonly meant the temperature, or range, at which the solid turns liquid.

The values are drawn from US9458124B2, “Substituted pyran derivatives” (Wayne State University, priority 2013, dated 2016).
